Data reported in ChEMBL document CHEMBL1201862, “PubChem BioAssay data set” (2004).
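Compound exposure: 48 hours, 5 concentrations, 96-well plates. GI50 is the concentration that inhibits growth by half.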 Calls of active or inactive are those of the source. Rule as the data show it: active = GI50 up to about 1.1 µM and inactive = higher.

Experiments:
Test in all cases: DTP human tumour cell line panel, 48 h
A549 = tested on: A549
CCRF-CEM = tested on: CCRF-CEM
DU-145 = tested on: DU-145
HL-60 = tested on: HL-60
HT-29 = tested on: HT-29
K562 = tested on: K562
LOX IMVI = tested on: LOX IMVI
MDA-MB-231 = tested on: MDA-MB-231
MDA-MB-435 = tested on: MDA-MB-435
NCI-H226 = tested on: NCI-H226
NCI-H23 = tested on: NCI-H23
OVCAR-3 = tested on: OVCAR-3
OVCAR-5 = tested on: OVCAR-5
OVCAR-8 = tested on: OVCAR-8
RXF 393 = tested on: RXF 393
SF-295 = tested on: SF-295
SK-MEL-28 = tested on: SK-MEL-28
SNB-75 = tested on: SNB-75
UACC-257 = tested on: UACC-257
SF-539 = tested on: SF-539

Measured: GI50

Oc1ccc2ccccc2c1/N=N/c1ccc(Cl)cc1
inactive: A549 > 100 µM | CCRF-CEM > 100 µM | DU-145 > 100 µM | HL-60 > 100 µM | HT-29 > 100 µM | K562 > 100 µM | LOX IMVI 24.8 µM | MDA-MB-231 26.9 µM | MDA-MB-435 > 100 µM | NCI-H226 > 100 µM | NCI-H23 > 100 µM | OVCAR-3 > 100 µM | OVCAR-5 > 100 µM | OVCAR-8 > 100 µM | RXF 393 > 100 µM | SF-295 > 100 µM | SK-MEL-28 > 100 µM | SNB-75 > 100 µM | UACC-257 > 100 µM

Oc1ccccc1C(Sc1nc2ccccc2s1)Sc1nc2ccccc2s1
inactive: A549 > 100 µM | CCRF-CEM 26.5 µM | DU-145 24.2 µM | HL-60 37.1 µM | HT-29 > 100 µM | K562 56.2 µM | LOX IMVI 67.5 µM | MDA-MB-231 > 100 µM | MDA-MB-435 73.5 µM | NCI-H226 36.3 µM | NCI-H23 58.7 µM | OVCAR-3 31.3 µM | OVCAR-5 > 100 µM | OVCAR-8 85.3 µM | RXF 393 > 100 µM | SF-295 41.6 µM | SK-MEL-28 > 100 µM | SNB-75 > 100 µM | UACC-257 > 100 µM

COc1ccc(NC2CC(C)N(C(=O)c3ccccc3)O2)cc1 (stereo not drawn)
inactive: A549 > 10 µM | CCRF-CEM > 10 µM | DU-145 > 10 µM | HL-60 9.91 µM | HT-29 > 10 µM | K562 > 10 µM | LOX IMVI > 10 µM | MDA-MB-231 > 10 µM | MDA-MB-435 > 10 µM | NCI-H23 > 10 µM | OVCAR-3 > 10 µM | OVCAR-5 > 10 µM | OVCAR-8 > 10 µM | RXF 393 > 10 µM | SF-295 > 10 µM | SF-539 > 10 µM | SK-MEL-28 > 10 µM | SNB-75 > 10 µM | UACC-257 > 10 µM

CNS(=O)(=O)c1ccc2c(c1)/C(=C1/Nc3ccccc3C1=O)C(=O)N2
inactive: A549 > 100 µM | CCRF-CEM 30.8 µM | DU-145 > 100 µM | HL-60 14.6 µM | HT-29 > 100 µM | K562 > 100 µM | LOX IMVI > 100 µM | MDA-MB-231 2.63 µM | MDA-MB-435 > 100 µM | NCI-H226 > 100 µM | NCI-H23 9.4 µM | OVCAR-3 > 100 µM | OVCAR-5 > 100 µM | RXF 393 > 100 µM | SF-295 > 100 µM | SK-MEL-28 > 100 µM | SNB-75 > 100 µM | UACC-257 > 100 µM

O=Cc1c2c(cc3c1CC1(C3)Cc3cc4c(c(C=O)c3C1)CCCC4)CCCC2
inactive: A549 21.3 µM | DU-145 85.3 µM | HL-60 56.1 µM | HT-29 18 µM | K562 21.1 µM | LOX IMVI 23.6 µM | MDA-MB-231 27.6 µM | MDA-MB-435 > 31.6 µM | NCI-H226 > 31.6 µM | NCI-H23 27.5 µM | OVCAR-3 > 31.6 µM | OVCAR-5 > 31.6 µM | OVCAR-8 23.5 µM | RXF 393 > 31.6 µM | SF-295 20.6 µM | SF-539 > 31.6 µM | SK-MEL-28 > 100 µM | SNB-75 > 100 µM | UACC-257 > 31.6 µM

COc1ccc(N2C(=O)C3c4[nH]c5ccccc5c4C4CCCCCCCCCC4C3C2=O)cc1 (stereo not drawn)
inactive: A549 > 10 µM | CCRF-CEM > 10 µM | DU-145 > 10 µM | HL-60 > 10 µM | HT-29 > 10 µM | K562 > 10 µM | LOX IMVI > 10 µM | MDA-MB-231 > 10 µM | MDA-MB-435 > 10 µM | NCI-H226 > 10 µM | NCI-H23 > 10 µM | OVCAR-3 > 10 µM | OVCAR-5 > 10 µM | OVCAR-8 > 10 µM | RXF 393 > 10 µM | SF-295 > 10 µM | SF-539 7.28 µM | SK-MEL-28 > 10 µM | SNB-75 > 10 µM

OC1(c2ccc3ccccc3c2)c2ccc3ccccc3c2C2=NCCN21 (stereo not drawn)
inactive: A549 46.5 µM | CCRF-CEM > 100 µM | DU-145 > 100 µM | HL-60 > 100 µM | HT-29 > 100 µM | K562 45 µM | LOX IMVI 91.8 µM | MDA-MB-231 76.4 µM | MDA-MB-435 > 100 µM | NCI-H23 > 100 µM | OVCAR-3 > 100 µM | OVCAR-5 > 100 µM | OVCAR-8 23.3 µM | RXF 393 29.4 µM | SF-295 41.4 µM | SF-539 19.5 µM | SK-MEL-28 > 100 µM | SNB-75 24.9 µM | UACC-257 > 100 µM

Cn1c(NN)nc(-c2ccc([N+](=O)[O-])cc2)c(C#N)c1=O
inactive: A549 19.8 µM | CCRF-CEM 25.4 µM | DU-145 16.4 µM | HL-60 30.8 µM | HT-29 12.8 µM | K562 38.2 µM | LOX IMVI 17.1 µM | MDA-MB-231 12.7 µM | MDA-MB-435 17.9 µM | NCI-H226 11 µM | NCI-H23 13.4 µM | OVCAR-3 17.1 µM | OVCAR-5 20.8 µM | OVCAR-8 19.2 µM | RXF 393 14.9 µM | SF-295 16.1 µM | SK-MEL-28 12.5 µM | SNB-75 20.4 µM | UACC-257 15.7 µM

CCOC(=O)C(NC(=O)CC)(Nc1ccccc1F)C(F)(F)F (stereo not drawn)
inactive: A549 > 100 µM | DU-145 > 100 µM | HL-60 > 100 µM | HT-29 > 100 µM | K562 86.9 µM | LOX IMVI > 100 µM | MDA-MB-231 > 100 µM | MDA-MB-435 > 100 µM | NCI-H23 > 100 µM | OVCAR-3 > 100 µM | OVCAR-5 58.1 µM | OVCAR-8 > 100 µM | RXF 393 > 100 µM | SF-295 > 100 µM | SF-539 > 100 µM | SK-MEL-28 > 100 µM | SNB-75 > 100 µM | UACC-257 > 100 µM

Clc1ccc(CSC2=NCCN2)cc1Cl
inactive: A549 27 µM | CCRF-CEM 5.36 µM | DU-145 14.7 µM | HL-60 10.9 µM | HT-29 14.2 µM | K562 13.5 µM | LOX IMVI 13.8 µM | MDA-MB-231 11.8 µM | MDA-MB-435 16 µM | NCI-H226 20.7 µM | NCI-H23 15.6 µM | OVCAR-3 14.1 µM | OVCAR-5 19.3 µM | OVCAR-8 15.9 µM | RXF 393 14.2 µM | SF-295 36.8 µM | SK-MEL-28 18.7 µM | UACC-257 11.1 µM

COC(=O)C(CCCCN)NC(=O)C(CCCCN)NC(C)=O.Cc1ccc(C(=O)Nc2ccc(S(=O)(=O)O)c3cc(S(=O)(=O)O)cc(S(=O)(=O)O)c23)cc1NC(=O)c1cccc(NC(=O)Nc2cccc(C(=O)Nc3cc(C(=O)Nc4ccc(S(=O)(=O)O)c5cc(S(=O)(=O)O)cc(S(=O)(=O)O)c45)ccc3C)c2)c1
inactive: A549 > 50 µM | CCRF-CEM > 50 µM | DU-145 > 50 µM | HL-60 > 50 µM | HT-29 > 50 µM | K562 > 50 µM | LOX IMVI > 50 µM | MDA-MB-231 16.2 µM | MDA-MB-435 > 50 µM | NCI-H226 > 50 µM | NCI-H23 > 50 µM | OVCAR-3 > 50 µM | OVCAR-8 > 50 µM | RXF 393 > 50 µM | SF-295 > 50 µM | SF-539 > 50 µM | SK-MEL-28 > 50 µM | SNB-75 7.59 µM | UACC-257 > 50 µM

O=C(/C=C/c1ccc([N+](=O)[O-])cc1)c1nc2ccccc2[nH]1
active: NCI-H226 1.05 µM
inactive: A549 > 45.9 µM | CCRF-CEM 20 µM | DU-145 97.3 µM | HL-60 5.2 µM | HT-29 38.5 µM | K562 3.66 µM | LOX IMVI 24.3 µM | MDA-MB-231 26.9 µM | MDA-MB-435 > 72.3 µM | OVCAR-3 9.44 µM | OVCAR-5 3.54 µM | OVCAR-8 > 70.5 µM | RXF 393 40.8 µM | SF-295 > 100 µM | SF-539 26.9 µM | SK-MEL-28 > 100 µM | SNB-75 45.3 µM | UACC-257 9.08 µM

COc1cc(/C=C2/C[C@H]3[C@@H]4CC=C5C[C@@H](O)CC[C@]5(C)[C@H]4CC[C@]3(C)NC2=O)cc(OC)c1OC
inactive: A549 15 µM | CCRF-CEM 47.8 µM | DU-145 2.28 µM | HT-29 24 µM | K562 40.3 µM | LOX IMVI 20 µM | MDA-MB-231 20.1 µM | MDA-MB-435 20.7 µM | NCI-H226 22 µM | NCI-H23 22.1 µM | OVCAR-3 28.7 µM | OVCAR-5 29.6 µM | OVCAR-8 18.9 µM | RXF 393 16 µM | SF-295 19.6 µM | SF-539 30.7 µM | SK-MEL-28 29.2 µM | UACC-257 27.5 µM
active: HL-60 0.405 µM

Cc1ccc2c3c1O[C@H]1c4nc5ccccc5cc4C[C@@]4(O)[C@@H](C2)N(CC2CC2)CC[C@]314
inactive: A549 6.4 µM | CCRF-CEM 1.39 µM | DU-145 14.1 µM | HL-60 9.23 µM | HT-29 3.31 µM | K562 3.31 µM | LOX IMVI 4.47 µM | MDA-MB-231 11.2 µM | MDA-MB-435 11.4 µM | NCI-H226 10.6 µM | NCI-H23 20.6 µM | OVCAR-3 11.6 µM | OVCAR-5 12.7 µM | OVCAR-8 10.7 µM | RXF 393 8 µM | SF-295 7.64 µM | SF-539 4.68 µM | SK-MEL-28 19.6 µM | UACC-257 24.7 µM
